We go through four compounds from patent EP1889615A2, “Formulations for oral administration with a health promoting effect on the osteoarticular and muscleskeleton apparatus” (ROTTAPHARM S.P.A., priority 2006, dated 2008).

Experiment [1] deals with tibial joint cartilage explants. Nature of the experiment: Rabbit cartilage explants: protection against IL-1β-induced cartilage degradation (GAG release). As to conditions: CHX 2.5 µg/ml.
Experimental: The explants (2 x 2 mm) have been transferred to plates with wells and equilibrated for 48 hours at 37°C with high glucose DMEM plus 10% FCS and 50 µg/ml gentamycin. Explants have then been stimulated for 48 hours with 1 ng/ml IL-1β in aphenolic DMEM, 1 g/l glucose, 50 µg/ml gentamycin and 1% BSA. IL-1β elicits strong activation of the enzymes which depolymerise the proteoglycan aggregates of the cartilage matrix, resulting in its degradation, with the release of the breakdown products, mainly represented by the various glycosaminoglycans (GAG) making up the proteoglycan aggregates, into the culture liquid. […] In order to assess the effects of the test products on IL-1β-induced cartilage degradation, they have been added to the cartilage explants 20 minutes prior to stimulation with IL-1β. Cartilage degradation has been assessed by expressing the GAG released into the culture liquid as a percentage of the total GAG measured following complete digestion of the cartilage explants using papain.
The test system of experiment [2] is zymosan-induced rat paw hyperalgesia. Nature of the experiment: Rat: analgesic activity (Randall and Selitto) on zymosan-induced paw hyperalgesia. The experiment is classed as in vivo. As to conditions: oral, 10 mg/kg (Man, ASS as mangostin; ASS 10 = Man 10 + CGS 133). As for the experimental part: The analgesic activities of the test products have been evaluated using the technique of Randall and Selitto [1957] on hyperalgesia induced in rat paw by a subplantar injection of 4 mg di zymosan in 0.1 ml of isotonic saline. The mechanical nociceptive threshold has been determined using an analgesimeter (Ugo Basile, Varese, Italy) at 0, 1, 2, 4, 6 and 24 hours following the injection of zymosan. The analgesimeter measures the weight (in grams) applied to the paw which causes the reflex retraction of the paw itself. The nociceptive threshold has been expressed as the difference (in grams) in nociceptive threshold at time 0. The test products have been administered orally 30 minutes prior to the injection of zymosan. Celecoxib, a known COX-2 inhibitor, widely used clinically as an analgesic-anti-inflammatory, and administered orally at a dose of 10 mg/kg, has been used as a reference standard. In order to express the treatment effects numerically, the areas under the curves of the analgesimetric weight increase on the inflamed paw have been measured from 0 to 24 hours, thus giving the measurement in g x 24 hours of the area under the analgesimetric curve.

Experiment [3] deals with zymosan-induced rat paw oedema. The experiment can be described thus: Rat: anti-inflammatory activity on zymosan-induced paw oedema. The class given is in vivo. As to conditions: oral, 10 mg/kg (Man, ASS as mangostin; ASS 10 = Man 10 + CGS 133). On the procedure:
The anti-inflammatory activities of the test products have been assessed according to Di Rosa et al. [1971] on rat paw oedema induced by a subplantar injection of 4 mg di zymosan in 0.1 ml of isotonic saline. Paw volume has been measured pletismographically at 0, 1, 2, 4, 6 and 24 hours following the injection of zymosan, and expressed in ml of difference, with respect to the baseline volume. The test products, suspended in 5 ml/kg of 5% methylcellulose, have been administered with a gastric probe 30 minutes prior to the injection of zymosan. Celecoxib, a known COX-2 inhibitor, widely used clinically, and administered orally at a dose of 10 mg/kg, has been used as a reference standard. In order to express the treatment effects numerically, the areas under the curves of paw volume increase from 0 to 24 hours have been measured, thus giving the measurement of paw oedema in mlx24 hours.

For experiment [4], the system named is Mycobacterium tuberculosis. As to conditions: cited from earlier work.
For experiment [5], the system named is methicillin and penicillin-resistant strains of Staphylococcus aureus. As to conditions: cited from earlier work.

SMILES strings stand for the structures. ≈ marks a conversion by molar mass, not a printed value.

Turning to `C[C@@H]1C[C@@H]([C@H](O)CC2CC(=O)NC(=O)C2)C(=O)[C@@H](C)C1` [CHX, Cycloheximide], the “%GAG released” value in experiment [1] is given as 12%. Besides, in experiment [1] (GAG release, protection positive), the “%Diff. vs baseline” value is listed as 82.6%.

Regarding `Cc1ccc(-c2cc(C(F)(F)F)nn2-c2ccc(S(N)(=O)=O)cc2)cc1` [CLX, Celecoxib], the “% Diff. vs. control” value was -46% in experiment [2] (analgesia) and -30% in experiment [3] (oedema). Besides, the Diff. vs. control in experiment [2] (difference of the Analgesia Δgx24h values) was -497; in experiment [3] (oedema), -4.7 mlx24 hours. Further, the Analgesia in experiment [2] (area under analgesimetric curve 0-24 h) is 574 Δgx24h. For the same compound, the Oedema in experiment [3] (area under curve 0-24 h) is listed as 11.8 Δmlx24h.

`COc1c(O)cc2oc3cc(O)c(CC=C(C)C)c(O)c3c(=O)c2c1CC=C(C)C` [α-mangostin]: the MIC (usually the smallest concentration in the dilution series that meets the test's criterion for growth inhibition) in experiment [4] is 6.25 µg/mL (≈ 15.2 µM); in experiment [5] it was 1.6 µg/mL (≈ 3.9 µM).

In the case of `COc1cc2oc3cc(O)c(OC)c(CC=C(C)C)c3c(=O)c2c(O)c1CC=C(C)C` [β-mangostin], the results for the MIC in experiment [4] and in experiment [5] were 6.25 µg/mL (≈ 14.7 µM) and 1.6 µg/mL (≈ 3.77 µM), respectively.
